Results reported in US7132252B2, “Methods for detecting the interaction of compounds with cytochrome P450 using optical molecular sensors” (Invitrogen Corporation, priority 1998, dated 2006).
“And” between values parts separate entries of the source, which are not always exact repeats. Equal entries are not always repeated.

How the values were obtained:
CYP3A4 [1] = target: T1, CYP3A4 (Homo sapiens, UniProt P08684); assay: Kinetic properties of fluorogenic substrates with CYP 3A4; assay type: biochemical; settings: for v (1.25 uM): turnover rate at 1.25 uM substrate; for v (10 uM): turnover rate at 10 uM substrate
T1 sequence (P08684 whole entry): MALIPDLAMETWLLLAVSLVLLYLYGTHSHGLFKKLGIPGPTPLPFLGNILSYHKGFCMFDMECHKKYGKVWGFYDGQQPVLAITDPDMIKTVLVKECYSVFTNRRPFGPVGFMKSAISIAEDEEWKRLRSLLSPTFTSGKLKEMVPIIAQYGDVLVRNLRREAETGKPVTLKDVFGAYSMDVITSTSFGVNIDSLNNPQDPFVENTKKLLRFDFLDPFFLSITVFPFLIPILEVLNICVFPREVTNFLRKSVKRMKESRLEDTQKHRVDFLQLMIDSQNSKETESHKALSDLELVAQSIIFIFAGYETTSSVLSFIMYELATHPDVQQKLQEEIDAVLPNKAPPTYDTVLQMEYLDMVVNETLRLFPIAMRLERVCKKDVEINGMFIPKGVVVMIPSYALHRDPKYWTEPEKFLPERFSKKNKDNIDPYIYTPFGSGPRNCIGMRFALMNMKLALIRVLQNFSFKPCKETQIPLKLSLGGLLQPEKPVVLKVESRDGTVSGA
From the text: For further understanding these terms in the context of this invention, attention is directed to FIG. 4 and the analysis of FIG. 4.
(§1) (respectively, MFC and MR).

CYP2C19 [2] = target: T2, CYP2C19 (Homo sapiens, UniProt P33261); assay: Kinetic properties of fluorogenic substrates with CYP 2C19; assay type: biochemical; settings: for v (1.25 uM): turnover rate at 1.25 uM substrate; for v (1.25 uM) / v (10 uM): — = too low to quantify; for v (10 uM): turnover rate at 10 uM substrate
T2 sequence (P33261 whole entry): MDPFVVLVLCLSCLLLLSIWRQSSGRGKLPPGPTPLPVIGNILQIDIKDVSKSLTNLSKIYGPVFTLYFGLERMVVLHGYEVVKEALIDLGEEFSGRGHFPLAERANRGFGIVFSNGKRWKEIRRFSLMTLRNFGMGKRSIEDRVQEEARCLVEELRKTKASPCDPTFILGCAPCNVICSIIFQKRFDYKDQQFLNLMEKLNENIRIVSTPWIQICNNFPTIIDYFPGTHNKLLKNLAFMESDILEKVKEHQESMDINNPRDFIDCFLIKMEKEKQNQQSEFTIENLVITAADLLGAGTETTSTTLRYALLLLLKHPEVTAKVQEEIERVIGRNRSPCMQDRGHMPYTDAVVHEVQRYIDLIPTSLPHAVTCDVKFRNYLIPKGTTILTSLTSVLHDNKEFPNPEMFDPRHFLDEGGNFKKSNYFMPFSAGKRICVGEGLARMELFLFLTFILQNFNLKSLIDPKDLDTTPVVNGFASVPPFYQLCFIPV

CYP2C9 [3] = target: T3, CYP2C9 (Homo sapiens, UniProt P11712); assay: Kinetic properties of fluorogenic substrates with CYP 2C9; assay type: biochemical; settings: for v (1.25 uM): turnover rate at 1.25 uM substrate; for v (10 uM): turnover rate at 10 uM substrate
T3 sequence (P11712 whole entry): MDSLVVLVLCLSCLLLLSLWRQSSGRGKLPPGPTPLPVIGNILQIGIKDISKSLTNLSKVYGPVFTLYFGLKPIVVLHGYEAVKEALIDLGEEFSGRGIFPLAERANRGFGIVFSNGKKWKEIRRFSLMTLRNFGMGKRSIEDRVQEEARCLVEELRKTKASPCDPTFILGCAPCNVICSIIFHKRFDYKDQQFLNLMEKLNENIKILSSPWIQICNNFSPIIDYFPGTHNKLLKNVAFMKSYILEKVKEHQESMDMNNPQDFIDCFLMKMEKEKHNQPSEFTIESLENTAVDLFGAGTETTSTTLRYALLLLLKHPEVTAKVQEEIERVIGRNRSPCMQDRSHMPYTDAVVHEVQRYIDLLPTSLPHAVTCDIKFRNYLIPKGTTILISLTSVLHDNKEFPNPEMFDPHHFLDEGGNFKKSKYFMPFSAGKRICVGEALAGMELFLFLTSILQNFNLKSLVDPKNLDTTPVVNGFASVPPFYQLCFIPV

CYP 2B6 = target: T4, CYP 2B6 (Homo sapiens, UniProt P20813); assay: Kinetic properties of fluorogenic substrates with CYP 2B6; assay type: biochemical; settings: for Km: human, CYP 2B6 isozyme; for Km / v (1.25 uM) / v (10 uM) / kcat: — = too low to quantify; for v (1.25 uM): turnover rate at 1.25 uM substrate; for v (10 uM): turnover rate at 10 uM substrate
T4 sequence (P20813 1-491): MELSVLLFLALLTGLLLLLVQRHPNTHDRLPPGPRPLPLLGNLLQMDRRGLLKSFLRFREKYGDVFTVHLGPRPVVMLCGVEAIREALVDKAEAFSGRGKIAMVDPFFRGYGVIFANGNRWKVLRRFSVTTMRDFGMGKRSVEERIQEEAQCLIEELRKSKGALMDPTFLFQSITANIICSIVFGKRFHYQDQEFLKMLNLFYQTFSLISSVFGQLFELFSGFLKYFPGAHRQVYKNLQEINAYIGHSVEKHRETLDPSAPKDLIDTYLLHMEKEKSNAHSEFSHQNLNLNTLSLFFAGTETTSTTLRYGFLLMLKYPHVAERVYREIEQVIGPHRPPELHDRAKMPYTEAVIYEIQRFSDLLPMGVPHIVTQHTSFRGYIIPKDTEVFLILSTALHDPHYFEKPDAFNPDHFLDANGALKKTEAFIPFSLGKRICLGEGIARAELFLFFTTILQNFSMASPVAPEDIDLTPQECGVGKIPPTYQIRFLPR

CYP3A4 [4] = target: T1, CYP3A4; assay: Fluorescence signal from enzymatic metabolism over reagent addition background, CYP3A4; assay type: biochemical; settings: BOMR vs benzylresorufin (FIG. 8); BOMCC vs BFC (FIG. 9)
Description: (§2) The assays were performed in a 96-well plate at room temperature and at a volume of 100 μl/well. […] (See Table 11.) The enzyme was made up in the appropriate K+ phosphate buffer at 10× and 10 μl/well was-added to the appropriate wells. (See Table 11.) The plate was read at 3 minute intervals for 12 minutes to obtain a background fluorescence levels. Readings were briefly interrupted to allow for the addition of 10 μl of 10×NADP+ in K+ phosphate buffer to each well. (See Table 11.) The readings were resumed at 3 minute intervals for another 12 minutes. […] To permit quantitative comparison between sensors that were or would be metabolized to yield fluorescent products of differing optical properties, the signal intensity corresponding to each well was normalized by division with the initial signal intensity (wells containing enzyme and buffer). […] The later increase in signal, approximately four minutes after the second addition and at later time points, is believed to be due to the enzymatic conversion of the substrate to the product. […] [table]

CYP2C9 [5] = target: T3, CYP2C9; assay: Fluorescence signal from enzymatic metabolism over reagent addition background, CYP2C9; assay type: biochemical; settings: OOMR and BOMCC vs MFC (FIG. 11)
Description: as §2

CYP3A4 [6] = target: T1, CYP3A4; assay: Kinetics of BOMR and BR toward CYP 3A4 (FIG. 4); assay type: biochemical; settings: BOMR versus BR
From the text: Whichever of the four abstractable hydrogen atoms (designated H^1 and H^2 in this representation of BOMR) is removed in the initial reaction step, with reference to Reaction Scheme 1 of FIG. 1, the hydroxylation product will spontaneously decompose to the free resorufin dye. In addition, the benzyloxy group, attached to the carbon carrying the two hydrogens designated H^2, contributes an inductive electronic effect on that carbon, which can stabilize the radical formed during abstraction of one of the H^2 hydrogens by a cytochrome P450.
Optimization of assay conditions was, and is preferably, accomplished through statistically validated Design of Experiments methodologies, using the commercial software package “Design-Expert®” produced by Stat-Ease® Inc. The data shown in FIGS. 4 and 5 were obtained with initial optimization.

CYP 1A2 = target: T5, CYP 1A2 (Homo sapiens, UniProt P05177); assay: Kinetic properties of fluorogenic substrates with CYP 1A2; assay type: biochemical
T5 sequence (P05177 1-516): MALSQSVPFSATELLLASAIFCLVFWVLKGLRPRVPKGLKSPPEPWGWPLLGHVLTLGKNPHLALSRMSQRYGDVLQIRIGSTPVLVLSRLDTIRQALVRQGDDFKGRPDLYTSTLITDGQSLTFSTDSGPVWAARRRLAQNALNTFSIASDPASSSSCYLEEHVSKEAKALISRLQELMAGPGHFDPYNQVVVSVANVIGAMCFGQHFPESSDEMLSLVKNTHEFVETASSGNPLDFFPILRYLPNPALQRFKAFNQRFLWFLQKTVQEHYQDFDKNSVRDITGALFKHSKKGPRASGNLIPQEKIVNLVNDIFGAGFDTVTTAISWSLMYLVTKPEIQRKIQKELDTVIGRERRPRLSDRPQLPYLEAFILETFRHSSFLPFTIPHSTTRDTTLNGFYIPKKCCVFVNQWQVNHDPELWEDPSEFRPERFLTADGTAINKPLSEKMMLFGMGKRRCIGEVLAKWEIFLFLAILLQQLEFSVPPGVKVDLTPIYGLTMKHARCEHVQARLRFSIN

CYP2C19 [7] = target: T2, CYP2C19; assay: Fluorescence signal from enzymatic metabolism over reagent addition background, CYP2C19; assay type: biochemical; settings: EOMCC vs CEC (FIG. 12)
Description: as §2

CYP2D6 [8] = target: T6, CYP2D6 (Homo sapiens, UniProt P10635); assay: Kinetic properties of fluorogenic substrates with CYP 2D6; assay type: biochemical
T6 sequence (P10635 whole entry): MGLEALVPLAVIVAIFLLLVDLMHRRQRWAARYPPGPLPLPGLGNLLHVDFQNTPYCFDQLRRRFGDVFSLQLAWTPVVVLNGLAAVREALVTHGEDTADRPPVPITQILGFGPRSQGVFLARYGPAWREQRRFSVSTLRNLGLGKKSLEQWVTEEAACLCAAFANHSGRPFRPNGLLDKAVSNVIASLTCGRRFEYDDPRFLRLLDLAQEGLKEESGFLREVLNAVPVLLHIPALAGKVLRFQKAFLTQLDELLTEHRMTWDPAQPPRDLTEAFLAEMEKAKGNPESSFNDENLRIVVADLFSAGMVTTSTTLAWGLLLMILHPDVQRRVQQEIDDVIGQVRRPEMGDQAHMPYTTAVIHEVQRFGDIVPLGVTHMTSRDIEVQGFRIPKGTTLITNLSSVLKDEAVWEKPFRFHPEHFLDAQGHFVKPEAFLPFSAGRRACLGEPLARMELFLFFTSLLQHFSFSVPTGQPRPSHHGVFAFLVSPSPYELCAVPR
From the text: as §1

CYP2D6 [9] = target: T6, CYP2D6; assay: Fluorescence signal from enzymatic metabolism over reagent addition background, CYP2D6; assay type: biochemical; settings: MOBFC vs AMMC (Gentest) (FIG. 10)
Description: as §2

[10] = Stability of substrate stock solution; assay type: physicochemical; settings: 10 mM in acetonitrile, stored at 4° C. in the dark
Description: Substrate stock solutions were stable when stored at 4° C. in the dark. 7-Hydroxy-4trifluoromethylcoumarin dye standard was prepared at 1 mM in DMSO. […] Control wells receive the appropriate inhibition controls for each isozyme. Also, inhibitors are added to wells that contain the dye standards to permit addition of substrate and enzyme to all wells of the plate. • 2. […] 30 μl/well Enzyme/Recycling System buffer was added.

CYP3A4 [11] = target: T1, CYP3A4; assay: in vitro; settings: pH 8
From the text: Data for a product fluorescence standard calibration curve was generated in the following manner.

| Compound | type of kinetics (CYP3A4 [1]) | v (1.25 uM) (CYP3A4 [1]; — = too low to quantify) | v (10 uM) (CYP3A4 [1]; — = too low to quantify) | type of kinetics (CYP2C19 [2]) | v (1.25 uM) (CYP2C19 [2]) | v (10 uM) (CYP2C19 [2]) | type of kinetics (CYP2C9 [3]) | v (1.25 uM) (CYP2C9 [3]; — = too low to quantify) | v (10 uM) (CYP2C9 [3]; — = too low to quantify) | type of kinetics (CYP 2B6) | Km (CYP 2B6) | v (1.25 uM) (CYP 2B6) | v (10 uM) (CYP 2B6) | kcat (CYP 2B6) | signal to background versus prior commercially available substrate (CYP3A4 [4]) | signal to background versus prior commercially available substrate (CYP2C9 [5]) | further results |
| --- | --- | --- | --- | --- | --- | --- | --- | --- | --- | --- | --- | --- | --- | --- | --- | --- | --- |
| N#Cc1cc2ccc(OCOCc3ccccc3)cc2oc1=O [BOMCC, 7-Benzyloxymethyloxy-3-cyanocoumarin] | sigmoidal | 0.12 min⁻¹ | 0.98 min⁻¹ | Michaelis-Menten | 0.16 min⁻¹ | 0.68 min⁻¹ | Michaelis-Menten | 0.04 min⁻¹ | 0.42 min⁻¹ | Michaelis-Menten | 52 µM | 0.38 min⁻¹ | 3.05 min⁻¹ | 1.1 s⁻¹ | superior signal to background | superior signal to background | kcat (CYP3A4 [1]; ( ) = from Michaelis-Menten fit, — = too low to quantify): (10.0) min-1 |
| COc1ccc(COc2ccc3c(C(F)(F)F)cc(=O)oc3c2)cc1 [MOBFC] | Michaelis-Menten | 0.0214 min⁻¹ and 0.02 min⁻¹ | 0.3453 min⁻¹ and 0.35 min⁻¹ | – | – | – | Michaelis-Menten | 0.02 min⁻¹ | 0.188 min⁻¹ and 0.19 min⁻¹ | – | – | – | – | – | – | – | kcat (CYP2C9 [3]; — = too low to quantify): 0.005 s⁻¹; type of kinetics (CYP2D6 [8]): Michaelis-Menten; v (1.25 uM) (CYP2D6 [8]; turnover rate at 1.25 uM substrate, — = too low to quantify): 0.09 min⁻¹; v (10 uM) (CYP2D6 [8]; turnover rate at 10 uM substrate, — = too low to quantify): 0.49 min⁻¹; signal to background versus prior commercially available substrate (CYP2D6 [9]): superior signal to background; stability of substrate stock solutions [10]: stable |
| Clc1ccc(COC(Cn2ccnc2)c2ccc(Cl)cc2Cl)c(Cl)c1 (stereo not drawn) [miconazole] | – | – | – | – | – | – | – | – | – | – | – | – | – | – | – | – | inhibition at 1 h, 10 µM (CYP3A4 [11]): ~100% |

More lines, main results first:

| type of kinetics (CYP3A4 [1]) | v (1.25 uM) (CYP3A4 [1]; — = too low to quantify) | v (10 uM) (CYP3A4 [1]; — = too low to quantify) | type of kinetics (CYP2C19 [2]) | v (1.25 uM) (CYP2C19 [2]) | v (10 uM) (CYP2C19 [2]) | type of kinetics (CYP2C9 [3]) | v (1.25 uM) (CYP2C9 [3]; — = too low to quantify) | v (10 uM) (CYP2C9 [3]; — = too low to quantify) | type of kinetics (CYP 2B6) | Km (CYP 2B6) | v (1.25 uM) (CYP 2B6) | v (10 uM) (CYP 2B6) | kcat (CYP 2B6) | signal to background versus prior commercially available substrate (CYP3A4 [4]) | signal to background versus prior commercially available substrate (CYP2C9 [5]) | Compound | further results |
| --- | --- | --- | --- | --- | --- | --- | --- | --- | --- | --- | --- | --- | --- | --- | --- | --- | --- |
| Michaelis-Menten | 0.55 min⁻¹ | 0.88 min⁻¹ | – | – | – | – | – | – | notMichaelis-Menten | 0.73 µM | 0.28 min⁻¹ | 0.71 min⁻¹ | 0.013 s⁻¹ | superior signal to background | – | O=c1ccc2nc3ccc(OCOCc4ccccc4)cc3oc-2c1 [BOMR, Benzyloxymethylresorufin] | CYP 3A4 turnover rate relative to BR (CYP3A4 [6]): approximately five |
| – | – | – | Michaelis-Menten | 0.34 min⁻¹ | 2.22 min⁻¹ | – | – | – | – | – | – | – | – | – | – | CCOCOc1ccc2cc(C#N)c(=O)oc2c1 [EOMCC] | type of kinetics (CYP 1A2): Michaelis-Menten; v (1.25 uM) (CYP 1A2; turnover rate at 1.25 uM substrate): 1.77 min⁻¹; v (10 uM) (CYP 1A2; turnover rate at 10 uM substrate): 9.95 min⁻¹; signal to background versus prior commercially available substrate (CYP2C19 [7]): superior signal to background |
| – | 0.323 min⁻¹ | 0.601 min⁻¹ | – | 0.1 min⁻¹ | 0.13 min⁻¹ | – | 0.137 min⁻¹ | 0.31 min⁻¹ | – | – | – | – | – | – | superior signal to background | CCCCCCCCOCOc1ccc2nc3ccc(=O)cc-3oc2c1 [OOMR, Octyloxymethylresorufin] | – |
